Data published in patent US12583851B2, “Heteroaryl-substituted pyrazine derivatives as pesticides” (Elanco Animal Health GmbH, priority 2019, dated 2026).

What was measured:
Type in all cases: in vivo
[1] = system: larvae of the banded cucumber beetle (Diabrotica balteata); test: Diabrotica balteata spray test; settings: 168 h, after 7 days, read-out: efficacy (seedling growth); for pest or weed control at 32 µg/disc, 100 g/ha: 100 g/ha (=32 μg/well); for pest or weed control at 6.4 µg/disc, 20 g/ha: 20 g/ha (=6.4 μg/well)
Procedure, shortened: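 Germinated wheat seedlings (5 per well, on agar) sprayed with compound in acetone/DMF with emulsifier-containing water, then infested with 10–20 Diabrotica balteata larvae. Efficacy (%) scored after 7 days from seedling growth: 100% = growth as untreated uninfested control, 0% = no seedlings grown.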

[2] = system: adult engorged female ticks (Rhipicephalus microplus); test: Rhipicephalus (Boophilus) microplus injection test; settings: 168 h, 4 μg/animal, egg deposition after 7 days, read-out: efficacy (infertile eggs)
Experimental: Rhipicephalus (Boophilus) microplus—Injection Test
(§1) Solvent: dimethyl sulfoxide
To produce a suitable preparation of active compound, 10 mg of active compound are dissolved in 0.5 mL solvent, and the concentrate is diluted with solvent to the desired concentration.
Five adult engorged female ticks (Rhipicephalus microplus) are injected with 1 μL compound solution into the abdomen. The ticks are transferred into replica plates and incubated in a climate chamber.
After 7 days egg deposition of fertile eggs is monitored. Eggs where fertility is not visible are stored in a climate chamber till hatching after about 42 days. An efficacy of 100% means all eggs are infertile; 0% means all eggs are fertile.

[3] = system: Rhipicephalus (Boophilus) microplus larvae (strain Parkhurst, resistant against synthetic pyrethroids); test: Rhipicephalus (Boophilus) microplus in-vitro contact test, larval cattle tick; settings: after 48 hours, read-out: efficacy (larvae dead or moribund); for pest or weed control at 1 µg/cm2, 100 g/ha: 1 μg/cm^2 (=100 g/ha); for pest or weed control at 5 µg/cm2, 500 g/ha: 5 μg/cm^2 (=500 g/ha)
Procedure, shortened: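 Acetone solutions were coated onto glass tube walls (900 ppm gives 5 μg/cm²); after drying, 20–50 pyrethroid-resistant Parkhurst larvae added and held at 27 °C, 85% RH. At 48 h, efficacy as % larvae dead or moribund, judged by loss of negative geotaxis.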

[4] = system: adult unfed cat fleas (Ctenocephalides felis); test: Ctenocephalides felis oral test; settings: 48 h, 100 ppm in citrated cattle blood, after 2 days
Experimental: Ctenocephalides felis—Oral Test
as §1
To produce a suitable preparation of active compound, 10 mg of active compound are dissolved in 0.5 mL solvent, and the concentrate is diluted with citrated cattle blood to the desired concentration.
Approximately 20 adult unfed cat fleas (Ctenocephalides felis) are placed in a flea chamber whose top and bottom is covered with gauze. A chamber whose bottom is sealed with parafilm, is filled with the blood-compound solution and placed on top of the flea chamber, so that the fleas can suck the blood. The blood chamber is heated to 37° C. whereas the flea chamber is kept at room temperature.
After 2 days mortality in % is determined. 100% means all the fleas have been killed; 0% means none of the fleas have been killed.

[5] = system: fall armyworm larvae (Spodoptera frugiperda); test: Spodoptera frugiperda spray test; settings: 168 h, maize leaf sections, after 7 days
Procedure, shortened: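 Compound dissolved in acetone/dimethylformamide, diluted in water containing 1000 ppm alkylarylpolyglycol ether emulsifier and sprayed onto maize leaf sections. Dried sections were infested with larvae; % mortality scored after 7 days (100% = all caterpillars killed, 0% = none).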

[6] = system: adult cat fleas (Ctenocephalides felis); test: Ctenocephalides felis in-vitro contact test, adult cat flea; settings: after 48 hours, read-out: efficacy (fleas dead or moribund); for pest or weed control at 1 µg/cm2, 100 g/ha: 1 μg/cm^2 (=100 g/ha); for pest or weed control at 5 µg/cm2, 500 g/ha: 5 μg/cm^2 (=500 g/ha)
Experimental: Ctenocephalides felis—In-Vitro Contact Tests Adult Cat Flea
(§2) 9 mg compound is solved in 1 ml acetone and diluted with acetone to the desired concentration. 250 μL of the test solution is filled in 25 mL glass test tubes and homogeneously distributed on the inner walls by rotation and tilting on a shaking device (2 h at 30 rpm). With a compound concentration of 900 ppm, an inner surface of 44.7 cm^2 and a homogeneous distribution, a dose of 5 μg/cm^2 is achieved.
(§3) After the solvent has evaporated, each test tube is filled with 5-10 adult cat fleas (Ctenocephalides felis), closed with a perforated lid and incubated in a lying position at room temperature and relative humidity. After 48 hours efficacy is determined. The fleas are patted on the ground of the tubes and are incubated on a heating plate at 45-50° C. for at most 5 minutes Immotile or uncoordinated moving fleas, which are not able to escape the heat by climbing upwards, are marked as dead or moribund.
An efficacy of 100% means all fleas are dead or moribund; 0% means no fleas are dead or moribund.

[7] = system: adult brown dog ticks (Rhipicephalus sanguineus); test: Rhipicephalus sanguineus in-vitro contact test, adult brown dog ticks; settings: 48 h, 5 μg/cm^2 (=500 g/ha), after 48 hours, read-out: efficacy (ticks dead or moribund)
Experimental: Rhipicephalus sanguineus—In-Vitro Contact Tests with Adult Brown Dog Ticks
as §2, with “mL” for “ml”, “[…]” for “250 μL”
as §3, with “brown dog ticks (Rhipicephalus sanguineus),” for “cat fleas (Ctenocephalides felis),”, “ticks” for “fleas”, “ticks,” for “fleas,”
An efficacy of 100% means all ticks are dead or moribund; 0% means no ticks are dead or moribund.

SMILES | pest or weed control at 32 µg/disc, 100 g/ha [1] [%] | pest or weed control at 0.004 mg [2] [%] | pest or weed control at 1 µg/cm2, 100 g/ha [3] [%] | pest or weed control at 5 µg/cm2, 500 g/ha [3] [%] | mortality at 100 ppm [4] [%] | mortality at 100 g/ha [5] [%] | pest or weed control at 6.4 µg/disc, 20 g/ha [1] [%] | pest or weed control at 1 µg/cm2, 100 g/ha [6] [%] | pest or weed control at 5 µg/cm2, 500 g/ha [6] [%] | pest or weed control at 5 µg/cm2, 500 g/ha [7] [%]
CC(NC(=O)c1cc(C#N)cc(C(F)(F)F)c1)c1nccnc1-c1ccccn1 (stereo not drawn) [Example I-15] | 100 | 80 | 80 | 80 | 100 | – | – | – | – | –
CC(NC(=O)c1cc(Cl)cc(C(F)(F)F)c1)c1nccnc1-c1ccccn1 (racemic) [Example I-1, (rac)-3-Chloro-N-{1-[3-(pyridin-2-yl)pyrazin-2-yl]ethyl}-5-(trifluoromethyl)benzamide] | 100 | – | 100 | – | 90 | 100 | – | – | – | –
CC(NC(=O)c1cc(Cl)cc(C(F)(F)F)c1)c1nccnc1-c1ccc(Cl)cn1 (stereo not drawn) [Example I-24] | 100 | 100 | 90 | 90 | 100 | 100 | 100 | – | – | –
CC(NC(=O)c1cc(Br)cc(OC(F)(F)F)c1)c1nccnc1-c1nccs1 (racemic) [Example I-53, (rac)-3-Bromo-N-{1-[3-(1,3-thiazol-2-yl)pyrazin-2-yl]ethyl}-5-(trifluoromethoxy)benzamide] | 100 | 80 | – | – | – | – | 80 | – | – | –
CC(NC(=O)c1cc(C(F)(F)F)cc(C(F)(F)F)c1)c1nccnc1-c1ncc(C(=O)N2CCCCC2)s1 (racemic) [Example I-64, (rac)-N-[1-{3-[5-(Piperidine-1-carbonyl)-1,3-thiazol-2-yl]pyrazin-2-yl}ethyl]-3,5-bis(trifluoromethyl)benzamide] | – | 100 | 100 | 100 | – | – | – | 100 | 100 | 100
CC(NC(=O)c1cc(Br)cc(C#N)c1)c1nccnc1-c1ccccn1 (stereo not drawn) [Example I-16] | 100 | – | – | – | 100 | – | – | – | – | 80
CC(NC(=O)c1cc(Cl)cc(Br)c1)c1nccnc1-c1ccccn1 (stereo not drawn) [Example I-14] | 80 | 80 | 90 | 80 | 100 | – | 80 | – | – | –
CC(NC(=O)c1cc(C#N)cc(C(F)(F)F)c1)c1nccnc1-c1ccc(Cl)cn1 (stereo not drawn) [Example I-25] | 100 | 80 | – | – | 90 | 100 | 100 | – | – | –
CC(NC(=O)c1cc(C(F)(F)F)cc(C(F)(F)F)c1)c1nccnc1-c1nccs1 (racemic) [Example I-5, (rac)-N-(1-(3-(Thiazol-2-yl)pyrazin-2-yl)ethyl)-3,5-bis(trifluoromethyl)benzamide] | 80 | 80 | 100 | 100 | 90 | – | – | – | – | –
CC(NC(=O)c1cc(Cl)cc(S(C)(=O)=O)c1)c1nccnc1-n1cc(C#N)cn1 (racemic) [Example I-103, (rac)-3-Chloro-N-{1-[3-(4-cyano-1H-pyrazol-1-yl)pyrazin-2-yl]ethyl}-5-(methanesulfonyl)benzamide] | 100 | – | 90 | 90 | – | 100 | 100 | – | 80 | 80
CC(NC(=O)c1cc(Cl)cc(OC(F)(F)F)c1)c1nccnc1-c1ccccn1 (stereo not drawn) [Example I-12] | 100 | – | – | – | 100 | 83 | 100 | – | – | –
CC(NC(=O)c1cc(Cl)cc(OC(F)(F)F)c1)c1nccnc1-c1ccc(Cl)cn1 (stereo not drawn) [Example I-21] | 100 | 80 | – | – | – | 100 | 100 | – | – | –
CC(NC(=O)c1cc(C(F)(F)F)cc(C(F)(F)F)c1)c1nccnc1-c1ncc(C(=O)N2C[C@@H](C)O[C@@H](C)C2)s1 (mixture of isomers) [Example I-66, (rac)-N-[1-(3-{5-[(cis)-2,6-Dimethylmorpholine-4-carbonyl]-1,3-thiazol-2-yl}pyrazin-2-yl)ethyl]-3,5-bis(trifluoromethyl)benzamide] | 100 | 80 | 100 | 100 | – | 100 | 100 | 100 | 100 | 80
CC(NC(=O)c1cc(C#N)cc(C(F)(F)F)c1)c1nccnc1-c1nccs1 (racemic) [Example I-56, (rac)-3-Cyano-N-{1-[3-(1,3-thiazol-2-yl)pyrazin-2-yl]ethyl)-5-(trifluoromethyl)benzamide] | 100 | 100 | – | – | – | 100 | 100 | – | – | –
CC(NC(=O)c1cc(Cl)cc(C#N)c1)c1nccnc1-c1ccc(Cl)cn1 (stereo not drawn) [Example I-23] | – | 100 | – | – | 100 | 100 | – | – | – | –
CC(NC(=O)c1cncc(C(C)(C)C)c1)c1nccnc1-c1ncccn1 (racemic) [Example I-11, (rac)-5-(tert-Butyl)-N-(1-(3-(pyrimidin-2-yl)pyrazin-2-yl)ethyl)nicotinamide] | – | – | – | 100 | 90 | – | – | – | – | –
CC(NC(=O)c1cc(Cl)cc(C(F)(F)F)c1)c1nccnc1-c1nccs1 (racemic) [Example I-3, (rac)-3-Chloro-N-(1-(3-(thiazol-2-yl)pyrazin-2-yl)ethyl)-5-(trifluoromethyl)benzamide] | 100 | 100 | – | – | 90 | – | 80 | – | – | –
